Experimental data: the supplement of paper PMC8024199
± gives the standard deviation of the averaged measurements.

What was measured:
Assay in all cases: drug sensitivity score (DSS) (DSS score); higher = more sensitive (stronger growth inhibition); extreme values may be limits of the assay
[1] = system: Ba/F3 P210-BCR-ABL1 RUNX1-/- (mouse)
Summary of the method: (§1)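 Mouse Ba/F3 cells, either CRISPR/Cas9-edited at a target exon or edited-control clones, were screened against a 528-compound library on pre-printed 384-well plates. Each compound was tested at five concentrations across a 10,000-fold range, with 10,000 cells per well in RPMI with 10% FBS for 72 h at 37 °C and 5% CO2. CellTiter-Glo luminescence was scaled between vehicle and positive-control wells, and each dose-response was summarised as a drug sensitivity score. Scores were averaged over two replicates.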

[2] = system: Ba/F3 P210-BCR-ABL1 RUNX1-/mut (mouse)
Summary of the method: as §1

[3] = system: Ba/F3 P210-BCR-ABL1 RUNX1wt/wt control (mouse)
Summary of the method: as §1

Row | Compound | drug sensitivity score [1] | drug sensitivity score [2] | drug sensitivity score [3]
1 | Cc1cn(-c2cc(NC(=O)c3ccc(C)c(Nc4nccc(-c5cnccn5)n4)c3)cc(C(F)(F)F)c2)cn1 [Radotinib] | 28.9 ± 8.2 | 30.9 ± 0.64 | 27.9 ± 0.14
2 | CC[C@@H]1C(=O)N(C)c2cnc(Nc3ccc(C(=O)N[C@H]4CC[C@H](N5CCN(CC6CC6)CC5)CC4)cc3OC)nc2N1C(C)C [Volasertib] | 11.15 ± 0.071 | 10.3 ± 0.42 | 5.9 ± 0.28
3 | CNC(=O)c1nn(C)c2c1C(C)(C)Cc1cnc(Nc3ccc(N4CCN(C)CC4)cc3)nc1-2 [Milciclib] | 20.9 ± 0.78 | 14.7 ± 0.85 | 10.8 ± 0.71
4 | COCCNCc1ccc(-c2cc3nccc(Oc4ccc(NC(=O)C5(C(=O)Nc6ccc(F)cc6)CC5)cc4F)c3s2)nc1 [Sitravatinib] | 8.95 ± 0.35 | 4.6 ± 0.71 | 0
5 | O=C(Nc1cccc(NC(=O)c2cccc(O)c2O)c1)c1cccc(O)c1O [MST-312] | 16.6 ± 0.21 | 17.1 ± 2 | 17.2 ± 0.42
6 | COC(=O)C[C@](O)(CCCC(C)(C)O)C(=O)O[C@@H]1C(OC)=C[C@]23CCCN2CCc2cc4c(cc2[C@H]13)OCO4 [Omacetaxine] | 33.8 ± 2.5 | 35.4 ± 3.7 | 28.8 ± 0.92
7 | CCc1nc(C(N)=O)c(Nc2ccc(N3CCC(N4CCN(C)CC4)CC3)c(OC)c2)nc1NC1CCOCC1 [Gilteritinib] | 6.2 ± 2 | 8.4 ± 2.5 | 3.25 ± 0.78
8 | CN(C)Cc1c(C(=O)NCCOc2ccc(C(=O)NO)cc2)oc2ccccc12 [Abexinostat] | 24.4 ± 1.3 | 23.2 ± 2.4 | 18.7 ± 0.28
9 | Cc1noc2c1-c1ccccc1C(c1ccc(Cl)cc1)=N[C@H]2CC(N)=O [CPI-0610] | 19.6 ± 1.1 | 19.1 ± 4.6 | 14 ± 0.28
10 | COc1cc(NS(C)(=O)=O)ccc1Nc1c2ccccc2nc2ccccc12 [Amsacrine] | 35.3 ± 2.7 | 25.3 ± 0.71 | 21.6 ± 0.85
11 | O=C(Nc1ccc(OC(F)(F)Cl)cc1)c1cnc(N2CC[C@@H](O)C2)c(-c2cc[nH]n2)c1 [Asciminib] | 31.85 ± 0.071 | 10.7 ± 4.5 | 18.8 ± 0.71
12 | N#Cc1ccc(COC[C@H]2O[C@@H](n3c(NCc4ccc(Cl)c(Cl)c4)nc4c(N)ncnc43)[C@H](O)[C@@H]2O)cc1 | 9.1 ± 1.8 | 11.2 ± 4 | 3.55 ± 0.071
13 | Cc1cc([C@@H](C)Nc2ccccc2C(=O)O)c2nc(N3CCOCC3)cc(=O)n2c1 [AZD-6482] | 0.1 ± 0.14 | 0.75 ± 1.1 | 0.15 ± 0.21
14 | CC[C@H](NC(=O)[C@H](C)NC)C(=O)N1C[C@@H](O)C[C@H]1Cc1c(-c2[nH]c3cc(F)ccc3c2C[C@@H]2C[C@H](O)CN2C(=O)[C@H](CC)NC(=O)[C@H](C)NC)[nH]c2cc(F)ccc12 [Birinapant] | 14 ± 5.5 | 4.15 ± 5.2 | 6.15 ± 0.071
15 | CC(=O)OC[C@H]1O[C@@H]([S-])[C@H](OC(C)=O)[C@@H](OC(C)=O)[C@@H]1OC(C)=O.CCP(CC)CC.[Au+] [Auranofin] | 8.5 ± 0.85 | 6.15 ± 4.5 | 2.8 ± 0.71
16 | O=C(O)CC[C@H]1CC[C@@](c2cc(F)ccc2F)(S(=O)(=O)c2ccc(Cl)cc2)CC1 [MK-0752] | 0 | 0 | 0
17 | CC(C)NC(=O)COc1cccc(-c2nc(Nc3ccc4[nH]ncc4c3)c3ccccc3n2)c1 [KD025] | 2 ± 1.7 | 2.3 ± 1.4 | 0
18 | CON(C)C(=O)N1N=C(c2cc(F)ccc2F)S[C@@]1(CCCN)c1ccccc1 [Filanesib] | 19.6 ± 2.2 | 14.95 ± 0.071 | 7.85 ± 0.35
19 | N#Cc1ccnc(N2C(=O)CC[C@H]2C(=O)N(c2cncc(F)c2)[C@H](C(=O)NC2CC(F)(F)C2)c2ccccc2Cl)c1 [Ivosidenib] | 0.3 ± 0.42 | 1.35 ± 1.9 | 0
20 | O=C(Nc1cc(Cl)cc2c1[nH]c1cnccc12)c1cccnc1 [PS-1145] | 0.4 ± 0.57 | 0.7 ± 0.99 | 0
21 | N[C@@H]1CCCN(c2c(/C=C3\SC(=O)NC3=O)cccc2-c2ccccc2)C1 [AZD1208] | 11.8 ± 0.35 | 7.05 ± 2.5 | 2.4 ± 0.42
22 | CN1CCN(c2cc(C(=O)Nc3ccc4c(c3)-c3c(c(C(N)=O)nn3-c3ccc(F)cc3)CC4)c(Cl)cn2)CC1 [PHA 408] | 10.2 ± 1.1 | 8.95 ± 1.1 | 7.4 ± 0.57
23 | Nc1nccc(-c2c(-c3ccc(F)cc3)ncn2C2CCCCC2)n1 | 0.05 ± 0.071 | 0 | 0

Row | Compound | drug sensitivity score [1] | drug sensitivity score [2] | drug sensitivity score [3]
24 | Cc1nc(=O)c2cc(CN(C)c3ccc(C(=O)N[C@@H](CCC(=O)O)C(=O)O)s3)ccc2[nH]1 [Raltitrexed] | 23.4 ± 2.2 | 20.3 ± 0.28 | 17.4 ± 0.57
25 | C[C@@H]1CN(C(=O)c2ccc(NC(=O)c3cc(O[C@H](C)c4c(Cl)ccc(F)c4Cl)c(N)nn3)cc2)C[C@H](C)N1 [Ensartinib] | 2.15 ± 0.92 | 0.2 ± 0.28 | 0
26 | CCNCCS(=O)(=O)NC[C@@]1(c2ccccc2)SC(NC(=O)C(C)(C)C)=NN1C(=O)C(C)(C)C [Litronesib] | 24.2 ± 1.6 | 21.5 ± 2.4 | 10.9 ± 0.28
27 | Cc1nn(C)c(COc2ccc(N3CCN(S(=O)(=O)N(C)C)CC3)cc2)c1-c1cccc2c(CCCOc3cccc4ccccc34)c(C(=O)O)n(CCN3CCOCC3)c12 | 6.9 ± 0.85 | 6.6 ± 0.14 | 6.65 ± 0.64
28 | CNC(=O)c1ccccc1Nc1cc(Nc2ccc(N3CCOCC3)cc2OC)ncc1C(F)(F)F [VS-4718] | 8.65 ± 0.49 | 7.65 ± 1.1 | 4.2 ± 0.28
29 | CCN(CC)CCCC(C)Nc1ccnc2cc(Cl)ccc12 (stereo not drawn) [Chloroquine] | 13.2 ± 5.2 | 14.9 ± 5.6 | 5.8 ± 0.28
30 | Cc1cc(Nc2cc(N3CCN(C)CC3)nc(/C=C/c3ccccc3)n2)n[nH]1 [ENMD-2076] | 9.4 ± 0.28 | 8.45 ± 0.35 | 5.5 ± 0.85
31 | Cc1sc2c(c1C)C(c1ccc(Cl)cc1)=N[C@@H](CC(=O)Nc1ccc(OCCOCCOCCOCCNc3cccc4c3C(=O)N(C3CCC(=O)NC3=O)C4=O)cc1)c1nnc(C)n1-2 (stereo partly drawn) [ARV-825] | 19.8 ± 0.14 | 18.7 ± 3.1 | 17.9 ± 0.78
32 | Cn1cc(C2=Nc3cc(NC(=O)C(N)C4CCCCC4)cc4c3C2=CNNC4=O)cn1 (stereo not drawn) | 18.2 ± 0.14 | 16 ± 0.42 | 7.95 ± 1.1
33 | O=C(NOC[C@H](O)CO)c1ccc(F)c(F)c1Nc1ccc(I)cc1F | 7.95 ± 0.92 | 3.85 ± 1.1 | 0.2 ± 0.28
34 | Cn1nccc1Nc1nccc(-c2ccn([C@H](CO)c3ccc(Cl)c(F)c3)c(=O)c2)n1 [Ravoxertinib] | 2.75 ± 2.6 | 1.3 ± 1.8 | 0.05 ± 0.071
35 | C[C@H]1C[C@@H](n2c(Nc3ccc(OC(F)(F)F)cc3)nc3cc(CCC(=O)O)ccc32)CC(C)(C)C1 | 0.8 ± 1.1 | 1.4 ± 2 | 0
36 | COc1cc2c(cc1-c1c(C)noc1C)ncc1[nH]c(=O)n([C@H](C)c3ccccn3)c12 [I-BET151] | 18.6 ± 0.78 | 18.4 ± 2.3 | 13.9
37 | Cn1cc(-c2cnn3c(N)c(Br)c([C@@H]4CCCNC4)nc23)cn1 [MK-8776] | 7.25 ± 0.64 | 5.25 ± 3.3 | 0
38 | Nc1cc(F)ccc1NC(=O)/C=C/c1cnn(C/C=C/c2ccccc2)c1 [RGFP966] | 4.8 ± 1.1 | 4.25 ± 0.78 | 1.3 ± 0.28
39 | O=C(NOCCO)c1ccc2cncn2c1Nc1ccc(I)cc1F [GDC-0623] | 10.8 ± 8.1 | 3.7 ± 3.7 | 0.55 ± 0.78
40 | O=C1CCc2c(Oc3ccc4c(c3)[C@@H]3[C@H](O4)[C@H]3c3nc4cc(C(F)(F)F)ccc4[nH]3)ccnc2N1 [BGB-283] | 21.8 ± 0.64 | 16.9 | 16 ± 0.14
41 | COc1cccc2c1C(=O)c1c(O)c3c(c(O)c1C2=O)C[C@@](O)(C(=O)CO)C[C@@H]3O[C@H]1C[C@H](N)[C@@H](O)[C@H](C)O1 [Epirubicin] | 24.9 ± 0.35 | 18.6 ± 3.5 | 13.1 ± 0.21
42 | CC[C@@H]1CN(C(=O)NCC(F)(F)F)C[C@@H]1c1cnc2cnc3[nH]ccc3n12 [Upadacitinib] | 0.75 ± 1.1 | 0.05 ± 0.071 | 5.35 ± 3
43 | COc1cc(OC)cc(N(CCNC(C)C)c2ccc3ncc(-c4cnn(C)c4)nc3c2)c1 [Erdafitinib] | 1.5 ± 0.14 | 0 | 0
44 | Cc1ccc(NS(=O)(=O)c2cccc(C#N)c2)c2[nH]cc(C#N)c12 [E7820] | 2 ± 0.99 | 5.45 ± 2 | 0.35 ± 0.21
45 | CC[C@H](C)C(=O)O[C@H]1C[C@@H](C)C=C2C=C[C@H](C)[C@H](CC[C@@H]3C[C@@H](O)CC(=O)O3)[C@H]21 [Lovastatin] | 0 | 0 | 0
46 | CCOC(=O)C1=CCCC[C@H]1S(=O)(=O)Nc1ccc(F)cc1Cl [Resatorvid] | 0 | 0 | 0
